The results in this text go back to US10738062B2, “Chromane-substituted tetracyclic compounds and uses thereof for the treatment of viral diseases” (Merck Sharp & Dohme Corp., priority 2016, dated 2020).

Read-outs that look alike come from different tables or passages of the source.

Common to all, as to parameters: species or system Hepatitis C virus
For one assay, the system named is HCV replicon 1A. Description: Cell-based HCV replicon assay (Replicon Assay A), replicon 1A. Particulars: replicon RNA by real time PCR, day 3. The method, then:
(§1) To measure cell-based anti-HCV activity of compounds of the present invention, two complimentary assays were employed using various replicons. In the first assay (“Replicon Assay A”), replicon cells were seeded at 2000 cells/well in 384-well 384-well flat bottom tissue culture treated clear bottom plate (Corning 3707) in the presence of the test compound. Various concentrations of test compound, typically in 10 serial dilutions, were added to the assay mixture, with the starting concentration ranging from 333.3 nM to 1.667 nM. The final concentration of DMSO was 0.5%. Fetal bovine serum was 5%, in the assay media. Cells were harvested on day 3 by removing media and washing the cells with a suitable wash buffer. The cells were lysed with the addition of 1× Qiagen lysis buffer (Cat #1062731). The replicon RNA level was measured using real time PCR (TaqMan® EZ RT-PCR, Applied Biosystems 403028) with the following primers and probes: […]
(§2) Cyclophilin RNA was used as endogenous control and was amplified in the same reaction as NS5B (multiplex PCR). The real-time RT-PCR reactions were run on ABI PRISM 7900HT Sequence Detection System using the following program: 50° C. for 2 minutes, 60° C. for 30 minutes, 95° C. for 5 minutes, 40 cycles of 94° C. for 20 sec, 55° C. for 1 minutes.
(§3) The amount of HCV replicon RNA per cell was quantified using a linear regression curve for a known nanogram (ng) amount of HCV replicon total RNA. This was established by plotting the Cycle Threshold values (Ct) from the Neo probe and primer set versus the log (ng) for each HCV replicon total RNA standard. The amount of HCV RNA for each replicon sample was calculated by taking the sample's Ct value, minus the line intercept, divided by the slope of the line. Similarly, the amount of Cyclophilin mRNA per cell was also quantified using a linear regression curve for a known nanogram (ng) amount of HCV replicon total RNA. Again, this was established by plotting the Cycle Threshold values (Ct) from the Cyclophilin probe and primer set versus the log (ng) for each HCV replicon total RNA standard.
(§4) The real-time RT-PCR reactions were run on ABI PRISM 7900HT or Viia7 Sequence Detection System using the following program: 48° C. for 30 minutes, 95° C. for 10 minutes, 40 cycles of 95° C. for 15 sec, 60° C. for 1 minutes. The 50% effective concentration (EC50) was the drug concentration necessary to achieve an increase in the cycle threshold (CT) of 1 over the projected baseline CT.
(§5) Data was obtained for various compounds of the present invention using the methods described in the Example above, and is presented in the table immediately below. EC50 data for replicons 1A, 1AY93H and 2B were obtained using Replicon Assay A and EC50 data for replicon 1B was obtained using Replicon Assay B.

Another assay deals with HCV replicon 2B. Description: Cell-based HCV replicon assay (Replicon Assay A), replicon 2B. The note with it: replicon RNA by real time PCR, day 3. The method, then:
as §1, §2, §3, §4, §5

In another assay the test system is HCV replicon 1A Y93H. Description: Cell-based HCV replicon assay (Replicon Assay A), replicon 1AY93H. Particulars: read-out: EC50 replicon 1A Y93H; Replicon Assay A; replicon RNA by real time PCR, day 3. The method, then:
as §1, §2, §3, §4, §5
(A replicon is a self-replicating genome or part of one, used to study replication in cells.)

Where [1] appears, read: read-out: EC50 replicon 2B, Replicon Assay A.

As usually defined, the EC50 is the concentration at which the effect is half-maximal. Regarding `COC(=O)N[C@H](C(=O)N1CCC[C@H]1c1ncc(-c2cc(F)c3c(c2)OC(c2ccc4c(c2)OCCC4C)n2c-3cc3cc(-c4cnc([C@@H]5CCCN5C(=O)[C@@H](NC(=O)OC)C(C)C)[nH]4)ccc32)[nH]1)C(C)C` (single isomer, unassigned) [Compound 7], the EC50 in the assay with HCV replicon 1A (Hepatitis C virus, 72 h) stood at 0.0017 nM; with HCV replicon 2B (setting [1]), 1.59 nM; with HCV replicon 1A Y93H, 2.18 nM.

In the case of `COC(=O)N[C@H](C(=O)N1CCC[C@H]1c1ncc(-c2cc(F)c3c(c2)OC(c2ccc4c(c2)OCCC4C)n2c-3cc3cc(-c4cnc([C@@H]5CCCN5C(=O)[C@@H](NC(=O)OC)C(C)C)[nH]4)ccc32)[nH]1)C(C)C` (single isomer, unassigned) [Compound 9], the concentration giving a half-maximal response (EC50) was 0.0026 nM with HCV replicon 1A, 0.772 nM in the assay with HCV replicon 2B (setting [1]) and 0.949 nM with HCV replicon 1A Y93H.

As to `COC(=O)N[C@H](C(=O)N1CCC[C@H]1c1ncc(-c2cc(F)c3c(c2)OC(c2ccc4c(c2)OC(C)(C)CC4)n2c-3cc3cc(-c4cnc([C@@H]5CCCN5C(=O)[C@@H](NC(=O)OC)C(C)C)[nH]4)ccc32)[nH]1)C(C)C` (single isomer, unassigned) [Compound 17], the EC50 stood at 5.21 nM in the assay on HCV replicon 2B (setting [1]) and 11.8 nM in the assay with HCV replicon 1A Y93H.

With `COC(=O)N[C@H](C(=O)N1CCC[C@H]1c1ncc(-c2cc(F)c3c(c2)OC(c2ccc4c(c2)OCCC4)n2c-3cc3cc(-c4cnc([C@@H]5C[C@@H](F)CN5C(=O)[C@@H](c5ccccc5)N5CCC5)[nH]4)ccc32)[nH]1)C(C)C` (single isomer, unassigned) [Compound 37], the EC50 in the assay on HCV replicon 1A amounted to 0.187 nM; in the assay with HCV replicon 1A Y93H it was 15.2 nM.

Take `COC(=O)N[C@H](C(=O)N1CCC[C@H]1c1ncc(-c2cc(F)c3c(c2)OC(c2ccc4c(c2)OCCC4)n2c-3cc3cc(-c4cnc([C@@H]5C[C@@H](F)CN5C(=O)[C@@H](c5ccccc5)N5CCC5)[nH]4)ccc32)[nH]1)C(C)C` (single isomer, unassigned) [Compound 38]: the figures for the EC50 in the assay on HCV replicon 1A and with HCV replicon 1A Y93H were 0.0052 nM and 6.65 nM, respectively.

Turning to `COC(=O)NC(C(=O)N1CCC[C@H]1c1ncc(-c2ccc3c(c2)cc2n3C(c3ccc4c(c3)OCCC4)Oc3cc(-c4cnc([C@@H]5CCCN5C(=O)[C@@H](NC(=O)OC)C(C)C)[nH]4)cc(F)c3-2)[nH]1)C(C)(C)F` (single isomer, unassigned) [Compound 41], in the assay on HCV replicon 2B (setting [1]), the EC50 amounted to 4.13 nM.

Turning to `COC(=O)NC(C(=O)N1CCC[C@H]1c1ncc(-c2ccc3c(c2)cc2n3C(c3ccc4c(c3)OCCC4)Oc3cc(-c4cnc([C@@H]5CCCN5C(=O)[C@@H](NC(=O)OC)C(C)C)[nH]4)cc(F)c3-2)[nH]1)C(C)(C)F` (single isomer, unassigned) [Compound 44], the 50% effective concentration (EC50) with HCV replicon 2B (setting [1]) turned out to be 4.91 nM.

As to `COC(=O)N[C@H](C(=O)N1CCC[C@H]1c1ncc(-c2cc(F)c3c(c2)OC(c2ccc4c(c2)OCC4)n2c-3cc3cc(-c4cnc([C@@H]5C[C@H]6C[C@H]6N5C(=O)[C@@H](NC(=O)OC)C(C)C)[nH]4)ccc32)[nH]1)C(C)C` (single isomer, unassigned) [Compound 47], the EC50 with HCV replicon 2B (setting [1]) is 4.32 nM; in the assay with HCV replicon 1A Y93H, 4.52 nM.

As to `CCN(CC)[C@@H](C(=O)N1[C@@H]2C[C@@H]2C[C@H]1c1ncc(-c2ccc3c(c2)cc2n3C(c3ccc4c(c3)OCCC4)Oc3cc(-c4cnc([C@@H]5CCCN5C(=O)[C@@H](NC(=O)OC)C5CCOCC5)[nH]4)cc(F)c3-2)[nH]1)c1ccccc1` (single isomer, unassigned) [Compound 53], the EC50 with HCV replicon 2B (setting [1]) came to 0.379 nM.

As to `COC(=O)N[C@H](C(=O)N1CCC[C@H]1c1ncc(-c2cc(F)c3c(c2)OC(c2ccc4c(c2)OCCC4)n2c-3cc3cc(-c4cnc([C@@H]5C[C@H]6C[C@H]6N5C(=O)[C@@H](c5ccccc5)N5CCC5)[nH]4)ccc32)[nH]1)C1CCOCC1` (single isomer, unassigned) [Compound 71], the half-maximal effective concentration (EC50) in the assay on HCV replicon 2B (Hepatitis C virus, 72 h, read-out: EC50 replicon 2B, Replicon Assay A) was 5.13 nM.

As to `COC(=O)N[C@H](C(=O)N1CCC[C@H]1c1ncc(-c2cc(F)c3c(c2)OC(c2ccc4c(c2)OCCC4)n2c-3cc3cc(-c4cnc([C@@H]5C[C@H]6C[C@H]6N5C(=O)[C@@H](c5ccccc5)N5CCC5)[nH]4)ccc32)[nH]1)C1CCOCC1` (single isomer, unassigned) [Compound 72], the EC50 in the assay with HCV replicon 2B (setting [1]) came to 3.3 nM.
